These results are taken from patent US10881656B2, “HIF inhibitors and use thereof” (The General Hospital Corporation, priority 2008, dated 2021).

Where “and” joins values, the source holds several entries; their conditions need not be identical. Equal entries are not always repeated.

The test system of data set [1] is HIF and VHL target genes. In words: Gene expression profiling and gene set enrichment analysis (GSEA) of compound treated 786-O cells. Type of data set: cell-based, human. As to conditions: for regulation of HIF target genes: 786-O cells at experimentally determined IC50 concentrations; for NES, gene set PRC3, VHL null (markers of PRC3 cells compared to WT8 cells) / NES, gene set Schofield, HIF (validated HIF-regulated genes) / NES, gene set Staller, VHL WT (markers of VHL WT cells compared to VHL null cells) / NES, gene set Staller, VHL null (markers of VHL null cells compared to VHL WT cells) / NES, gene set WT8, VHL WT (markers of WT8 cells compared to PRC3 cells): 786-O cells, GSEA normalized enrichment score. As for the experimental part:
RNA from compound treated 786-O cells was isolated as described for qRT-PCR experiments. Labeled cRNA was prepared and hybridized to Affymetrix U133 Plus 2.0 microarrays according to the manufacturer's protocols. Scans were processed using Affymetrix MASS software and median scaled. Gene expression values less than a minimum threshold of 20 or a maximum threshold of 16000 were set to 20 and 16000, respectively. Genes with minimal variation across the dataset were discarded (maximum/minimum<3 or maximum−minimum<100). Class neighbors were identified with GenePattern software using the signal to noise metric (Golub et al., 1999). Hierarchical clustering was performed using dCHIP software. Gene set enrichment analysis was performed as described (Mootha et al., 2003) and significance was determined by permutation of the gene labels. Gene expression signatures were analyzed using the Connectivity Map webtool (build 01). Full details of the Connectivity Map dataset and analytics are provided elsewhere (Lamb et al., 2006). For PGJ2 expression analysis, raw gene-expression data have GEO series accession number GSE13818 and compound signatures from which non-HG-U133A probe sets were removed (see Table 6) were used to query the Connectivity Map (build 02).
Total RNA was extracted from stable 786-O derived VHL-reconstituted (WT8), HIF-2a knock down (pTR) and their respective vector only control (PRC3 and pTV) cells and labeled cRNA was hybridized to oligonucleotide arrays. […] Compound-treated parental 786-O cells were subjected to the same analysis. […] The gene set enrichment analysis (GSEA) algorithm was used to investigate whether the compounds affected the expression of genes identified as VHL and HIF targets in other cell types (Mootha et al., 2003).

Data set [2] relates to HIF-2a mRNA. The experiment in a line: qRT-PCR for HIF-2a mRNA expression. Type of data set: cell-based, human. The conditions noted are these: 786-O derived cells, qRT-PCR normalized to B2M. As for the experimental part: ID NO: 1) and [NT] […] ID NO: 3) and [NT] ID NO: 4) for […] ID NO: 5) and [NT] ID NO: 6) for Transferrin Receptor 1 ([…] ID NO: 7) and [NT] ID NO: 8) for […] ID NO: 9) and [NT] ID NO: 10) for […] ID NO. 11) and [NT] ID NO: 12) for EGLN3. […] ID NO: 13) and [NT] ID NO: 14). Quantitative RT-PCR was performed on total RNA harvested from 7H4 cells treated with medium only, DMSO or compound. […] To test whether the compounds alter HIF-2a stability, the inventors assessed protein half-life following the addition of cycloheximide in compound versus DMSO-only treated cells (see FIG. 10).

Data set [3] relates to 786-O cells. In words: Cellular toxicity at IC50 concentrations. It counts as cell-based, human.
In data set [4] the test system is HIF-2a 5′-UTR Iron-Responsive Element (IRE). In words: Luciferase reporters with HIF-2a 5′-UTR / IRE in 786-O cells. Type of data set: cell-based, human. The conditions noted are these: for dependence of effect on the IRE (wild-type or mutant 5′-UTR IRE reporter): 786-O luciferase reporter lines; for dependence of effect on HIF-2a 5′-UTR: HIF-2a promoter luciferase with or without 5′-UTR.

Data set [5] addresses IRP1 (Homo sapiens, UniProt P21399). The experiment in a line: HIF-2a activity (EGLN3 qRT-PCR) in IRP knock down lines. As to conditions: 786-O IRP knock down lines.
The subject of data set [6] is 7SV (SV40-luciferase) cells. The experiment in a line: SV40-luciferase control reporter assay in 786-O derived 7SV cells. It counts as cell-based, human. The conditions noted are these: 48 hours. The protocol:
The screen for small molecule inhibitors was performed in the Institute for Chemical and Cellular biology, Harvard Medical School. 7SV or 7H4 cells were plated onto 384-well plates. The next day compounds were added robotically to the medium, to a final concentration of approximately 10 μM. 24 hours later, media was aspirated and Passive Lysis Buffer (Promega) and Luciferase Assay Reagent II (Promega) were added. Luciferase activity was measured with an Analyst plate reader (LJL Biosystems). All experiments were performed in duplicate and the identity of lead compounds was confirmed by mass spectroscopy
Luciferase assays were performed using the Promega's Dual-luciferase Assay Reporter System (Promega, E1910) according to the manufacturer's instructions. Counts obtained from transient transfections were normalized for co-transfected Renilla luciferase. Stable clones were normalized to medium only treated wells.
Functionally validated HRE and control SV40 luciferase reporter constructs were stably introduced into VHL-deficient 786-O cells to generate 7H4 and 7SV lines, respectively (see FIG. 8A). […]
To validate the connectivity map-derived prediction that PGJ2 is involved in HIF signaling, the inventors treated HRE-luciferase expressing 786-O cells (7H4) and SV40-luciferase expressing control cells (7SV) with increasing doses of PGJ2. […] Luciferase activity was measured at 48 hours.

The test system of data set [7] is HIF-2a target genes. In words: HIF-2a target gene expression (Glut-1 Western blot, VEGF and IGFBP3 ELISA, EGLN3 qRT-PCR). Type of data set: cell-based, human. The conditions noted are these: treated 786-O cells. As for the experimental part:
ID NO: 1) and [NT] […] ID NO: 3) and [NT] ID NO: 4) for […] ID NO: 5) and [NT] ID NO: 6) for Transferrin Receptor 1 ([…] ID NO: 7) and [NT] ID NO: 8) for […] ID NO: 9) and [NT] ID NO: 10) for […] ID NO. 11) and [NT] ID NO: 12) for EGLN3. […] ID NO: 13) and [NT] ID NO: 14). […] VEGF or IGFBP3 ELISA was performed on the conditioned supernatant using Quantikine immunoassay kits (R&D Systems, DVE00 for VEGF, DGB300 for IGFBP3). […] Hypoxia stabilized HIF-2a in VHL-reconstituted WT8 cells, but treatment with compounds diminished hypoxia-induced HIF-2a expression (FIG. 3C).

Data set [8] deals with Fli1-GFP fish embryo. In words: Inhibition of vascularization in fish embryo. As to conditions: 3microM; treated at 20 hpf, imaged 48-50 hpf.
Data set [9] relates to IRP2. The experiment in a line: IRP2 expression in treated cells. Type of data set: cell-based, human. The source says: However, IRP2 contributes very little—if at all—to the total IRP bound to the HIF2a IRE (Zimmer et al., 2008).

IRP1, sequence (P21399 whole entry): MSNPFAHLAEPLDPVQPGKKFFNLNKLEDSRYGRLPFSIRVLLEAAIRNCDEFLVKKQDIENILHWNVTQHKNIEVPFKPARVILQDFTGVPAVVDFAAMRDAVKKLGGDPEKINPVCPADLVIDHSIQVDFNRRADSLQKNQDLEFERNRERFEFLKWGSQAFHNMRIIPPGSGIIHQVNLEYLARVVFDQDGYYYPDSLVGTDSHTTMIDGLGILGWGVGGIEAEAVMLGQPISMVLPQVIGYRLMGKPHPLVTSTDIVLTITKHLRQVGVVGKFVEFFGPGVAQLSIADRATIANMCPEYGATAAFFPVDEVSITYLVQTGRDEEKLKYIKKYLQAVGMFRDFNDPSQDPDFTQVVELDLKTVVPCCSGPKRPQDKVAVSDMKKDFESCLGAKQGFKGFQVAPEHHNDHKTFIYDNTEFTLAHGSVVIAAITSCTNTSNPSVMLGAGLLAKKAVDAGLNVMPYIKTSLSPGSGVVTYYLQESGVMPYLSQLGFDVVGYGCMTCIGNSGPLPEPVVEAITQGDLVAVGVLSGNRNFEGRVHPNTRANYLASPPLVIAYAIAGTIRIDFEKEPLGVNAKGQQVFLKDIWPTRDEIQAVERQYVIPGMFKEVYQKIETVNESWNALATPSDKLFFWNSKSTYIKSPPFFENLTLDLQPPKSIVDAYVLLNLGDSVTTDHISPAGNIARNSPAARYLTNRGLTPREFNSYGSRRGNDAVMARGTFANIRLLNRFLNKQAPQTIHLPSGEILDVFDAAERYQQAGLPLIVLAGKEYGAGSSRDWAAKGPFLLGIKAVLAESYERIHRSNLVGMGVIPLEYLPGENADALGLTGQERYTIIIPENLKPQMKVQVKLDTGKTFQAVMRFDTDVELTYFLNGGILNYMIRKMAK

Take `C/C(=C\c1ccccc1)C(=O)CCN(C)C.Cl` [Compound 40, 5-(dimethylamino)-2-methyl-1-phenyl-1-penten-3-one hydrochloride]: in data set [1], the “regulation of HIF target genes” value is “coordinately downregulate HIF target genes”; the “NES, gene set PRC3, VHL null (markers of PRC3 cells compared to WT8 cells)” value was “NES: −3.50”; the “NES, gene set Schofield, HIF (validated HIF-regulated genes)” value (from here on “NES, gene set Schofield, HIF”) is given as “NES: −1.65”; the “NES, gene set Staller, VHL WT (markers of VHL WT cells compared to VHL null cells)” value is given as “NES: −1.75”. In addition, in data set [1], the “NES, gene set Staller, VHL null (markers of VHL null cells compared to VHL WT cells)” value is reported as “NES: −2.48” and the “NES, gene set WT8, VHL WT (markers of WT8 cells compared to PRC3 cells)” value was “NES: −1.86”. Also, in data set [2], the “HIF-2a mRNA expression” value is “do not effect HIF-2a mRNA expression”. Besides, the cellular toxicity result in data set [3] was “comparative lack of cellular toxicity at IC50 concentrations”. Moreover, in data set [4], the “dependence of effect on the IRE (wild-type or mutant 5′-UTR IRE reporter)” value (“dependence of effect on the IRE” below) is given as “work via the Iron-Responsive Element (IRE)” and the “dependence of effect on HIF-2a 5′-UTR” value was “dependent upon presence of 5′-UTR”.

As for `COc1ccc(O)c(/C=C/C(=O)c2c(O)cc(C)oc2=O)c1` [Compound 41, 4-hydroxy-3-[3-(2-hydroxy-5-meoxyphenyl)acryloyl]-6-methyl-2H-pyran-2-one], in data set [1], the “regulation of HIF target genes” value is reported as “coordinately downregulate HIF target genes”; the “NES, gene set PRC3, VHL null (markers of PRC3 cells compared to WT8 cells)” value was “NES*: −2.98”; the “NES, gene set Schofield, HIF” value is reported as “NES: −1.62”; the “NES, gene set Staller, VHL WT (markers of VHL WT cells compared to VHL null cells)” value is “NES: 1.62”. Moreover, in data set [1], the “NES, gene set Staller, VHL null (markers of VHL null cells compared to VHL WT cells)” value is “NES: −2.42” and the “NES, gene set WT8, VHL WT (markers of WT8 cells compared to PRC3 cells)” value is given as “NES: 1.58”. The “HIF-2a mRNA expression” value in [2] is recorded as “do not effect HIF-2a mRNA expression”. Moreover, in data set [3], the cellular toxicity result is recorded as “comparative lack of cellular toxicity at IC50 concentrations”. Further, in data set [4], the “dependence of effect on the IRE” value is reported as “work via the Iron-Responsive Element (IRE)” and the “dependence of effect on HIF-2a 5′-UTR” value is “dependent upon presence of 5′-UTR”.

Take `COC(=O)c1sccc1N/N=C(/C#N)S(C)(=O)=O` [Compound 76, methyl 3-{2-[cyano(methylsulfonyl)methylene] hydrazino}thiophene-2-carboxylate]: the “effect on HIF-2a activity when IRP1 is knocked down” value in data set [5] is “inhibition of IRP1 is sufficient to block effect of compounds on HIF-2a activity”. Besides, in data set [1], the “regulation of HIF target genes” value is “coordinately downregulate HIF target genes”; the “NES, gene set PRC3, VHL null (markers of PRC3 cells compared to WT8 cells)” value is “NES: −3.15”; the “NES, gene set Schofield, HIF” value is given as “NES: −1.78”; the “NES, gene set Staller, VHL WT (markers of VHL WT cells compared to VHL null cells)” value is “NES: 1.53”. Moreover, in [1], the “NES, gene set Staller, VHL null (markers of VHL null cells compared to VHL WT cells)” value was “NES: −2.45” and the “NES, gene set WT8, VHL WT (markers of WT8 cells compared to PRC3 cells)” value is “NES: 1.88”. Moreover, in data set [2], the “HIF-2a mRNA expression” value is recorded as “do not effect HIF-2a mRNA expression”. In addition, the cellular toxicity entry in data set [3] is on record as “comparative lack of cellular toxicity at IC50 concentrations”. Moreover, in data set [4], the “dependence of effect on the IRE” value is “work via the Iron-Responsive Element (IRE)” and the “dependence of effect on HIF-2a 5′-UTR” value was “dependent upon presence of 5′-UTR”.

Regarding `CC1(C)CC(=O)C=C(Sc2ccc(C#N)cc2[N+](=O)[O-])S1` [Compound 77, 4-[(2,2-dimethyl-4-oxo-3,4-dihydro-2H-thiin-6-yl)thio]-3-nitrobenzonitrile], the “effect on HIF-2a activity when IRP1 is knocked down” value in data set [5] is “inhibition of IRP1 is sufficient to block effect of compounds on HIF-2a activity”. Also, in data set [1], the “regulation of HIF target genes” value is reported as “coordinately downregulate HIF target genes”; the “NES, gene set PRC3, VHL null (markers of PRC3 cells compared to WT8 cells)” value is listed as “NES: −3.15”; the “NES, gene set Schofield, HIF” value is “NES: −1.78”; the “NES, gene set Staller, VHL WT (markers of VHL WT cells compared to VHL null cells)” value is on record as “NES: 1.53”. Also, in data set [1], the “NES, gene set Staller, VHL null (markers of VHL null cells compared to VHL WT cells)” value is given as “NES: −2.45” and the “NES, gene set WT8, VHL WT (markers of WT8 cells compared to PRC3 cells)” value is listed as “NES: 1.88”. Moreover, in [2], the “HIF-2a mRNA expression” value is given as “do not effect HIF-2a mRNA expression”. Moreover, the cellular toxicity entry in [3] was “comparative lack of cellular toxicity at IC50 concentrations”. Also, in data set [4], the “dependence of effect on the IRE” value is on record as “work via the Iron-Responsive Element (IRE)” and the “dependence of effect on HIF-2a 5′-UTR” value is on record as “dependent upon presence of 5′-UTR”.

For the compound `CCCCC/C=C/C=C1/C(=O)C=C[C@@H]1C/C=C\CCCC(=O)O` [PGJ2, 15-deoxy-Δ^12,14-prostaglandin J2], the SV40-driven luciferase activity entry in data set [6] was “not affected”. Also, the “expression of HIF-2a target genes (Glut-1, VEGF, IGFBP3, EGLN3)” value in data set [7] was “decrease”. Moreover, in data set [8], the “Totals: Completed” value was 47; the “Totals: stalled” value is on record as 39; the “completed of total, per animal” value is 6 of 17 (2×) and 17 of 18 and 9 of 17 (2×). In addition, in data set [9], the IRP2 expression result is recorded as “minimally increased”. Moreover, the “HIF-2a mRNA expression” value in data set [2] is reported as “no concomitant decrease in HIF2a mRNA expression”. Besides, the “effect on synthetic 5′-UTR stem loop reporter (CMV-SL over CMV)” value in data set [4] (786-O cells, 10 μM) is given as “no effect on the synthetic 5′-UTR element”. For the same compound, in [4], the “dependence of effect on the IRE” value was “completely abolished PGJ2 sensitivity” and the “dependence of effect on HIF-2a 5′-UTR” value is “decreased the luciferase activity derived from the UTR-containing plasmid but not the plasmid driven by the HIF promoter alone”.
